The experiment addresses human F508del-CFTR (Homo sapiens, UniProt P13569, DEL508-508). The experiment can be described thus: F508del-CFTR cell surface expression (corrector activity), DiscoveRx ß-galactosidase complementation chemiluminescence assay in recombinant U2OS cell line.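 As to all read-outs here: U2OS cells co-expressing ProLink-tagged F508del-CFTR and a membrane-anchored enzyme acceptor, where more surface CFTR restores β-galactosidase activity measured by chemiluminescence.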 The conditions noted are these: for EC50: EC50, F508del-CFTR cell surface expression, U2OS cells, 16h compound incubation, geomean values; for Emax: U2OS, in relation to Emax of corrector lumacaftor (=100%), arithmetic mean values.

Sequence of human F508del-CFTR (P13569 with tags, fused parts or gaps DEL508-508): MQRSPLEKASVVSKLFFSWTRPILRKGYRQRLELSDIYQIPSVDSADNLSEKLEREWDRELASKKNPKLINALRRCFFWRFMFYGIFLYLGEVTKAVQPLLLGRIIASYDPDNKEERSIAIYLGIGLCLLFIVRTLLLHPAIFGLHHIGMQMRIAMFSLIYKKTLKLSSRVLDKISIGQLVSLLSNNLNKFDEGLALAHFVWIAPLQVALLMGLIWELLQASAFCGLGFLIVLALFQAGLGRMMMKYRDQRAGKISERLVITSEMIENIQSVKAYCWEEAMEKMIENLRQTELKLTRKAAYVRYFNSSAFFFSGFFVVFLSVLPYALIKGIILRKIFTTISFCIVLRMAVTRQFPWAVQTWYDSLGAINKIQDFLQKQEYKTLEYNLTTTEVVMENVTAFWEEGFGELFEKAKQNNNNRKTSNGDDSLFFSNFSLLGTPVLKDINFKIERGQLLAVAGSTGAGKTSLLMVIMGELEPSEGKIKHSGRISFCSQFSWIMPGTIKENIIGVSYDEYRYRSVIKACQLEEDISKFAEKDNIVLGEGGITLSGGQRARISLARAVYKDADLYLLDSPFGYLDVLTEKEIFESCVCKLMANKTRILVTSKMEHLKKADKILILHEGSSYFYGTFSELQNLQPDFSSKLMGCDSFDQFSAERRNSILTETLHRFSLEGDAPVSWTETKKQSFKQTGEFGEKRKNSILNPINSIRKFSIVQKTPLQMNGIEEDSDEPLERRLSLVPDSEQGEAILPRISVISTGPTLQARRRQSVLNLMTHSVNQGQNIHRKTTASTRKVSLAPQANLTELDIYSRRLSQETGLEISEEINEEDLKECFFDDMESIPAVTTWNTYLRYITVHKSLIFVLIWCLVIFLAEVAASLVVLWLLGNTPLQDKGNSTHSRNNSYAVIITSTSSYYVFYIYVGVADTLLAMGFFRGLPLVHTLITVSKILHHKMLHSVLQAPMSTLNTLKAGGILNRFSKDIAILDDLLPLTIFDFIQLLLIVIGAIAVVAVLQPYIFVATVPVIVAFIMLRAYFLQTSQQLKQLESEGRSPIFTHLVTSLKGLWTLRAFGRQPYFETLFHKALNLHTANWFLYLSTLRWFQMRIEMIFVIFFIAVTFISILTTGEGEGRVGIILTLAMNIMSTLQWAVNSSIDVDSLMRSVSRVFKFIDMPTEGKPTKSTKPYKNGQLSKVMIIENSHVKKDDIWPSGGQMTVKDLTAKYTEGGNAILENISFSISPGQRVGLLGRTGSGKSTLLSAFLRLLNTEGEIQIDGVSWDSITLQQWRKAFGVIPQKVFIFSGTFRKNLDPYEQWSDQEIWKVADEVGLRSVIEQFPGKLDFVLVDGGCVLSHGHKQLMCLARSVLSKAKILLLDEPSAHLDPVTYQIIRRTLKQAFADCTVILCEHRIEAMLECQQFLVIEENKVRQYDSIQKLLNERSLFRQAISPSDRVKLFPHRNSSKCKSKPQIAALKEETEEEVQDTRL

For `Cc1nc2ccc3c(c2o1)C(=O)N[C@H](C(=O)NCCc1cccc(OC(F)F)c1)CC(=O)N(C)[C@@H](CC(C)C)C(=O)N1CCOC[C@@H]1C(=O)N[C@H](Cc1ccccc1)CO3` [Example 625], the EC50 turned out to be 781 nM and the maximal effect (Emax) amounted to 186%.

As to `CC(C)C[C@H]1C(=O)N(CCCc2ccccc2)CC(=O)N[C@H](Cc2ccccc2)COc2ccc3ccccc3c2C(=O)N[C@H](C(=O)NCCc2ccc3c(c2)OCO3)CC(=O)N1C` [Example 626, (3S,7S,13R)-N-(2-(benzo[d][1,3]dioxol-5-yl)ethyl)-13-benzyl-7-isobutyl-6-methyl-1,5,8,11-tetraoxo-9-(3-phenylpropyl)-1,2,3,4,5,6,7,8,9,10,11,12,13,14-tetradecahydronaphtho[1,2-p][1]oxa[4,7,10,14]tetraazacycloheptadecine-3-carboxamide], the EC50 came to 163 nM and the Emax was 253%.

As for `CC(C)C[C@H]1C(=O)N2CCOC[C@@H]2C(=O)N[C@H](Cc2ccccc2)COc2cnc3c(F)cccc3c2C(=O)N[C@H](C(=O)NCCc2ccc3c(c2)OCCO3)CC(=O)N1C` [Example 627, (9S,13S,19aR,22R)-22-benzyl-N-(2-(2,3-dihydrobenzo[b][1,4]dioxin-6-yl)ethyl)-3-fluoro-13-isobutyl-12-methyl-7,11,14,20-tetraoxo-7,8,9,10,11,12,13,14,16,17,19,19a,20,21,22,23-hexadecahydro-[1,4]oxazino[3′,4′:6,7][1]oxa[4,7,10,14]tetraazacycloheptadecino[17,16-c]quinoline-9-carboxamide], the EC50 was 786 nM and the Emax stood at 395%.

With `COc1cccc(CCNC(=O)[C@@H]2CC(=O)N(C)[C@@H](CC(C)C)C(=O)N(C)C3(CC3)C(=O)N[C@H](Cc3ccccc3)COc3ccc4nc(C)oc4c3C(=O)N2)c1` [Example 628, (8′R,14′S,18′S)-8′-benzyl-14′-isobutyl-N-(3-methoxyphenethyl)-2′,12′,15′-trimethyl-10′,13′,16′,20′-tetraoxo-7′,8′,9′,10′,13′,14′,15′,16′,17′,18′,19′,20′-dodecahydro-12′H-spiro[cyclopropane-1,11′-oxazolo[4′,5′:5,6]benzo[1,2-p][1]oxa[4,7,10,14]tetraazacycloheptadecine]-18′-carboxamide], the EC50 amounted to 363 nM and the Emax was determined as 355%.

Regarding `Cc1cc(CCNC(=O)[C@@H]2CC(=O)N(C)[C@@H](CC(C)C)C(=O)N3CCCC[C@@H]3C(=O)N[C@H](Cc3ccccc3)COc3ccc4c(C)noc4c3C(=O)N2)on1` [Example 629, (8S,12S,18aR,21R)-21-benzyl-12-isobutyl-3,11-dimethyl-N-(2-(3-methylisoxazol-5-yl)ethyl)-6,10,13,19-tetraoxo-6,7,8,9,10,11,12,13,16,17,18,18a,19,20,21,22-hexadecahydro-15H-isoxazolo[4′,5′:5,6]benzo[1,2-p]pyrido[2,1-f][1]oxa[4,7,10,14]tetraazacycloheptadecine-8-carboxamide], the 50% effective concentration (EC50) was determined as 521 nM and the Emax was found to be 215%.

For the compound `Cc1cc(CCNC(=O)[C@@H]2CC(=O)N(C)[C@@H](CC3CCCC3)C(=O)N3CCCC[C@@H]3C(=O)N[C@H](Cc3ccccc3)COc3ccc4c(C)noc4c3C(=O)N2)on1` [Example 630, (8S,12S,18aR,21R)-21-benzyl-12-(cyclopentylmethyl)-3,11-dimethyl-N-(2-(3-methylisoxazol-5-yl)ethyl)-6,10,13,19-tetraoxo-6,7,8,9,10,11,12,13,16,17,18,18a,19,20,21,22-hexadecahydro-15H-isoxazolo[4′,5′:5,6]benzo[1,2-p]pyrido[2,1-f][1]oxa[4,7,10,14]tetraazacycloheptadecine-8-carboxamide], the EC50 amounted to 261 nM and the Emax turned out to be 175%.

Consider `Cc1cc(CCNC(=O)[C@@H]2CC(=O)N(C)[C@@H](CC3CCCC3)C(=O)N3CCCC[C@H]3C(=O)N[C@H](Cc3ccccc3)COc3ccc4c(C)noc4c3C(=O)N2)on1` [Example 631, (8S,12S,18aS,21R)-21-benzyl-12-(cyclopentylmethyl)-3,11-dimethyl-N-(2-(3-methylisoxazol-5-yl)ethyl)-6,10,13,19-tetraoxo-6,7,8,9,10,11,12,13,16,17,18,18a,19,20,21,22-hexadecahydro-15H-isoxazolo[4′,5′:5,6]benzo[1,2-p]pyrido[2,1-f][1]oxa[4,7,10,14]tetraazacycloheptadecine-8-carboxamide], for which the half-maximal effective concentration (EC50) came to 898 nM and the Emax stood at 133%.

Consider `Cc1cc(CCNC(=O)[C@@H]2CC(=O)N(C)[C@@H](CC(C)C)C(=O)N3CCCC[C@@H]3C(=O)N[C@H](Cc3ccccc3)COc3ccc4nc(C)oc4c3C(=O)N2)on1` [Example 632, (8S,12S,18aR,21R)-21-benzyl-12-isobutyl-4,11-dimethyl-N-(2-(3-methylisoxazol-5-yl)ethyl)-6,10,13,19-tetraoxo-6,7,8,9,10,11,12,13,16,17,18,18a,19,20,21,22-hexadecahydro-15H-oxazolo[4′,5′:5,6]benzo[1,2-p]pyrido[2,1-f][1]oxa[4,7,10,14]tetraazacycloheptadecine-8-carboxamide], for which the EC50 was 927 nM and the Emax is 326%.

Consider `CO[C@H]1C[C@]2(C1)C(=O)N[C@H](Cc1ccccc1)COc1ccc3ccccc3c1C(=O)N[C@H](C(=O)NCCc1cc(C)no1)CC(=O)N(C)[C@@H](CC(C)C)C(=O)N2C` [Example 633, (1r,3S,3′S,7′S,13′R)-13′-benzyl-7′-isobutyl-3-methoxy-6′,9′-dimethyl-N-(2-(3-methylisoxazol-5-yl)ethyl)-1′,5′,8′,11′-tetraoxo-2′,3′,4′,5′,6′,7′,8′,9′,11′,12′,13′,14′-dodecahydro-1′H-spiro[cyclobutane-1,10′-naphtho[1,2-p][1]oxa[4,7,10,14]tetraazacycloheptadecine]-3′-carboxamide], for which the EC50 is 652 nM and the maximal effect (Emax) was determined as 316%.

Take `Cc1noc2c3c(ccc12)OC[C@@H](Cc1ccccc1)NC(=O)[C@H]1CCCCN1C(=O)[C@H](CC(C)C)N(C)C(=O)C[C@@H](C(=O)NCCc1c(F)cccc1F)NC3=O` [Example 634, (8S,12S,18aR,21R)-21-benzyl-N-(2,6-difluorophenethyl)-12-isobutyl-3,11-dimethyl-6,10,13,19-tetraoxo-6,7,8,9,10,11,12,13,16,17,18,18a,19,20,21,22-hexadecahydro-15H-isoxazolo[4′,5′:5,6]benzo[1,2-p]pyrido[2,1-f][1]oxa[4,7,10,14]tetraazacycloheptadecine-8-carboxamide]: the EC50 is 173 nM and the maximal response (Emax) is 178%.

In the case of `Cc1noc2c3c(ccc12)OC[C@@H](Cc1ccccc1)NC(=O)[C@@H]1CCCCN1C(=O)[C@H](CC(C)C)N(C)C(=O)C[C@@H](C(=O)NCCc1c(F)cccc1F)NC3=O` [Example 635, (8S,12S,18aS,21R)-21-benzyl-N-(2,6-difluorophenethyl)-12-isobutyl-3,11-dimethyl-6,10,13,19-tetraoxo-6,7,8,9,10,11,12,13,16,17,18,18a,19,20,21,22-hexadecahydro-15H-isoxazolo[4′,5′:5,6]benzo[1,2-p]pyrido[2,1-f][1]oxa[4,7,10,14]tetraazacycloheptadecine-8-carboxamide], the EC50 stood at 404 nM and the Emax amounted to 112%.

For the compound `CC(C)C[C@H]1C(=O)N2CCCC[C@@H]2C(=O)N[C@H](Cc2ccccc2)COc2cnc3ccc(F)cc3c2C(=O)N[C@H](C(=O)NCCc2c(F)cccc2F)CC(=O)N1C` [Example 636, (9S,13S,19aR,22R)-22-benzyl-N-(2,6-difluorophenethyl)-5-fluoro-13-isobutyl-12-methyl-7,11,14,20-tetraoxo-7,8,9,10,11,12,13,14,17,18,19,19a,20,21,22,23-hexadecahydro-16H-pyrido[2′,1′:6,7][1]oxa[4,7,10,14]tetraazacycloheptadecino[17,16-c]quinoline-9-carboxamide], the EC50 came out at 91 nM and the Emax is 276%.

For the compound `CC(C)C[C@H]1C(=O)N2CCCC[C@@H]2C(=O)N[C@H](Cc2ccccc2)COc2cnc3ccc(F)cc3c2C(=O)N[C@H](C(=O)NCCc2noc(C3CC3)n2)CC(=O)N1C` [Example 637, (9S,13S,19aR,22R)-22-benzyl-N-(2-(5-cyclopropyl-1,2,4-oxadiazol-3-yl)ethyl)-5-fluoro-13-isobutyl-12-methyl-7,11,14,20-tetraoxo-7,8,9,10,11,12,13,14,17,18,19,19a,20,21,22,23-hexadecahydro-16H-pyrido[2′,11:6,7][1]oxa[4,7,10,14]tetraazacycloheptadecino[17,16-c]quinoline-9-carboxamide], the EC50 came out at 106 nM and the Emax was 300%.

As for `CC(C)C[C@H]1C(=O)N2CCCC[C@@H]2C(=O)N[C@H](Cc2ccccc2)COc2cnc3c(F)cccc3c2C(=O)N[C@H](C(=O)NCCc2cc(C3CC3)on2)CC(=O)N1C` [Example 638, (9S,13S,19aR,22R)-22-benzyl-N-(2-(5-cyclopropylisoxazol-3-yl)ethyl)-3-fluoro-13-isobutyl-12-methyl-7,11,14,20-tetraoxo-7,8,9,10,11,12,13,14,17,18,19,19a,20,21,22,23-hexadecahydro-16H-pyrido[2′,11:6,7][1]oxa[4,7,10,14]tetraazacycloheptadecino[17,16-c]quinoline-9-carboxamide], the EC50 was determined as 182 nM and the Emax amounted to 297%.

Take `CC(C)C[C@H]1C(=O)N2CCCC[C@@H]2C(=O)N[C@H](Cc2ccccc2)COc2cnc3ccc(F)cc3c2C(=O)N[C@H](C(=O)NCCc2cc(C3CC3)on2)CC(=O)N1C` [Example 639, (9S,13S,19aR,22R)-22-benzyl-N-(2-(5-cyclopropylisoxazol-3-yl)ethyl)-5-fluoro-13-isobutyl-12-methyl-7,11,14,20-tetraoxo-7,8,9,10,11,12,13,14,17,18,19,19a,20,21,22,23-hexadecahydro-16H-pyrido[2′,1′:6,7][1]oxa[4,7,10,14]tetraazacycloheptadecino[17,16-c]quinoline-9-carboxamide]: the EC50 was determined as 173 nM and the Emax was 305%.

In general, EC50 refers to the concentration needed to bring the measured effect to its halfway point. By Emax is commonly meant the greatest response seen or fitted, relative to the assay's reference.

These data come from patent US20240208992A1, “MACROCYCLES AS CFTR MODULATORS” (Idorsia Pharmaceuticals Ltd, priority 2021, published 2024).
